The supplement of paper PMC10307832

Tests used:
Experiment in all cases: relative viability (nuclei count vs DMSO), 5 days (fraction); higher = more cells survive
[1] = test system: ABC-1
Method in brief: (§1)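 Cells from lung cancer lines were seeded into 1536-well plates and, one day later, dosed by pin tool. Treatments were either a single drug or a fixed dose of an anchor drug with five library-drug doses (not always all listed) in √10 steps. After 5 days, nuclei were stained in a one-step fixation (final 0.05% Triton X-100, 1% formaldehyde, 1 ug/ml Hoechst) and counted on 4× images, and relative viability is the treated-to-vehicle nuclei ratio, as the median of duplicate plates.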

[2] = test system: BEN
Method in brief: as §1

[3] = test system: EPLC-272H
Method in brief: as §1

[4] = test system: HCC-827
Method in brief: as §1

[5] = test system: HOP-62
Method in brief: as §1

[6] = test system: LU99A
Method in brief: as §1

[7] = test system: NCI-H1355
Method in brief: as §1

[8] = test system: NCI-H1666
Method in brief: as §1

[9] = test system: NCI-H1792
Method in brief: as §1

[10] = test system: NCI-H1975
Method in brief: as §1

[11] = test system: NCI-H2170
Method in brief: as §1

[12] = test system: NCI-H23
Method in brief: as §1

[13] = test system: NCI-H2405
Method in brief: as §1

[14] = test system: NCI-H3122
Method in brief: as §1

[15] = test system: NCI-H322M
Method in brief: as §1

[16] = test system: NCI-H358
Method in brief: as §1

[17] = test system: NCI-H520
Method in brief: as §1

[18] = test system: NCI-H596
Method in brief: as §1

[19] = test system: NCI-H647
Method in brief: as §1

[20] = test system: NCI-H727
Method in brief: as §1

[21] = test system: NCI-H838
Method in brief: as §1

[22] = test system: PC-14
Method in brief: as §1

[23] = test system: UMC-11
Method in brief: as §1

O=C(O)CCCCC(CCSCc1ccccc1)SCc1ccccc1 (stereo not drawn) [CPI-613] + Cc1nc(Nc2ncc(C(=O)Nc3c(C)cccc3Cl)s2)cc(N2CCN(CCO)CC2)n1 [Dasatinib] (partner 0.075 µM)
relative viability ([1]; first compound 5 µM): 0.561
relative viability ([1]; first compound 50 µM): 0.527
relative viability ([1]; first compound 158.11 µM): 0.232
relative viability ([1]; first compound 500 µM): 0.196
relative viability ([2]; first compound 5 µM): 0.341
relative viability ([2]; first compound 15.81 µM): 0.293
relative viability ([2]; first compound 50 µM): 0.293
relative viability ([2]; first compound 158.11 µM): 0.267
relative viability ([2]; first compound 500 µM): 0.279
relative viability ([3]; first compound 5 µM): 0.317
relative viability ([3]; first compound 15.81 µM): 0.334
relative viability ([3]; first compound 50 µM): 0.449
relative viability ([3]; first compound 158.11 µM): 0.219
relative viability ([3]; first compound 500 µM): 0.0109
relative viability ([4]; first compound 5 µM): 0.262
relative viability ([4]; first compound 15.81 µM): 0.295
relative viability ([4]; first compound 50 µM): 0.405
relative viability ([4]; first compound 158.11 µM): 0.315
relative viability ([4]; first compound 500 µM): 0.353
relative viability ([5]; first compound 5 µM): 0.625
relative viability ([5]; first compound 15.81 µM): 0.68
relative viability ([5]; first compound 50 µM): 0.659
relative viability ([5]; first compound 158.11 µM): 0.521
relative viability ([5]; first compound 500 µM): 0.0443
relative viability ([6]; first compound 5 µM): 0.551
relative viability ([6]; first compound 15.81 µM): 0.577
relative viability ([6]; first compound 50 µM): 0.424
relative viability ([6]; first compound 158.11 µM): 0.426
relative viability ([6]; first compound 500 µM): 0.0381
relative viability ([7]; first compound 5 µM): 0.682
relative viability ([7]; first compound 15.81 µM): 0.697
relative viability ([7]; first compound 50 µM): 0.701
relative viability ([7]; first compound 158.11 µM): 0.53
relative viability ([7]; first compound 500 µM): 0.375
relative viability ([8]; first compound 5 µM): 0.808
relative viability ([8]; first compound 15.81 µM): 0.858
relative viability ([8]; first compound 50 µM): 0.749
relative viability ([8]; first compound 158.11 µM): 0.386
relative viability ([8]; first compound 500 µM): 0.18
relative viability ([9]; first compound 5 µM): 0.772
relative viability ([9]; first compound 15.81 µM): 0.748
relative viability ([9]; first compound 50 µM): 0.789
relative viability ([9]; first compound 158.11 µM): 0.669
relative viability ([9]; first compound 500 µM): 0.766
relative viability ([10]; first compound 5 µM): 0.377
relative viability ([10]; first compound 15.81 µM): 0.331
relative viability ([10]; first compound 50 µM): 0.347
relative viability ([10]; first compound 158.11 µM): 0.176
relative viability ([10]; first compound 500 µM): 0.111
relative viability ([11]; first compound 5 µM): 0.586
relative viability ([11]; first compound 15.81 µM): 0.566
relative viability ([11]; first compound 50 µM): 0.612
relative viability ([11]; first compound 158.11 µM): 0.461
relative viability ([11]; first compound 500 µM): 0.167
relative viability ([12]; first compound 5 µM): 0.725
relative viability ([12]; first compound 15.81 µM): 0.635
relative viability ([12]; first compound 50 µM): 0.621
relative viability ([12]; first compound 158.11 µM): 0.293
relative viability ([12]; first compound 500 µM): 0.017
relative viability ([13]; first compound 5 µM): 0.205
relative viability ([13]; first compound 15.81 µM): 0.176
relative viability ([13]; first compound 50 µM): 0.203
relative viability ([13]; first compound 158.11 µM): 0.201
relative viability ([13]; first compound 500 µM): 0.209
relative viability ([14]; first compound 5 µM): 0.795
relative viability ([14]; first compound 15.81 µM): 0.693
relative viability ([14]; first compound 50 µM): 0.802
relative viability ([14]; first compound 158.11 µM): 0.702
relative viability ([14]; first compound 500 µM): 0.28
relative viability ([15]; first compound 5 µM): 0.248
relative viability ([15]; first compound 15.81 µM): 0.245
relative viability ([15]; first compound 50 µM): 0.257
relative viability ([15]; first compound 158.11 µM): 0.23
relative viability ([15]; first compound 500 µM): 0.0545
relative viability ([16]; first compound 15.81 µM): 0.145
relative viability ([16]; first compound 50 µM): 0.146
relative viability ([16]; first compound 158.11 µM): 0.157
relative viability ([16]; first compound 500 µM): 0.0248
relative viability ([17]; first compound 5 µM): 0.188
relative viability ([17]; first compound 15.81 µM): 0.17
relative viability ([17]; first compound 50 µM): 0.202
relative viability ([17]; first compound 158.11 µM): 0.168
relative viability ([17]; first compound 500 µM): 0.149
relative viability ([18]; first compound 5 µM): 0.647
relative viability ([18]; first compound 15.81 µM): 0.616
relative viability ([18]; first compound 50 µM): 0.628
relative viability ([18]; first compound 158.11 µM): 0.465
relative viability ([18]; first compound 500 µM): 0.0504
relative viability ([19]; first compound 5 µM): 0.197
relative viability ([19]; first compound 15.81 µM): 0.144
relative viability ([19]; first compound 50 µM): 0.146
relative viability ([19]; first compound 158.11 µM): 0.0387
relative viability ([19]; first compound 500 µM): 0.0112
relative viability ([20]; first compound 5 µM): 0.305
relative viability ([20]; first compound 15.81 µM): 0.35
relative viability ([20]; first compound 50 µM): 0.329
relative viability ([20]; first compound 158.11 µM): 0.275
relative viability ([20]; first compound 500 µM): 0.138
relative viability ([21]; first compound 5 µM): 0.285
relative viability ([21]; first compound 15.81 µM): 0.237
relative viability ([21]; first compound 50 µM): 0.286
relative viability ([21]; first compound 158.11 µM): 0.261
relative viability ([21]; first compound 500 µM): 0.243
relative viability ([22]; first compound 5 µM): 0.237
relative viability ([22]; first compound 15.81 µM): 0.232
relative viability ([22]; first compound 50 µM): 0.247
relative viability ([22]; first compound 158.11 µM): 0.0644
relative viability ([22]; first compound 500 µM): 0.0134
relative viability ([23]; first compound 5 µM): 0.444
relative viability ([23]; first compound 15.81 µM): 0.417
relative viability ([23]; first compound 50 µM): 0.482
relative viability ([23]; first compound 158.11 µM): 0.144
relative viability ([23]; first compound 500 µM): 0.0883
